According to patent US10227331B2 (priority 2015, dated 2019):
Read-outs that look alike come from different tables or passages of the source.

Experiments:
[1] = target: IMP-1 (Serratia marcescens, UniProt P52699); test: biochemical; assay type: biochemical
Outline: (§1)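 Fluorescence assay, CCF2-FA substrate (cephalosporin core linking 7-hydroxycoumarin to fluorescein); inhibitor + MBL + substrate, 2 h, 25° C. IC50 by 4-parameter fit, semi-log plot.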

[2] = target: NDM-1 (Klebsiella pneumoniae, UniProt C7C422); test: biochemical; assay type: biochemical; conditions: CCF2-FA substrate, 2 hours at 25° C; read-out: NDM-1 IC50
Outline: as §1

[3] = tested on: Escherichia coli expressing NDM-1 (CLB30005, CLB30016); assay type: cell-based; conditions: NDM-1 (CLB30016), with imipenem 1 μg/ml, 95% inhibition of bacterial growth
Outline: (§2)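 Colonies from overnight 35 °C blood-agar cultures were suspended in saline, diluted 1:100 into 1.1× CAMHB and exposed to test compound with or without imipenem at 1 μg/ml. After 22–24 h at 35 °C, absorbance was read to find the concentration restoring imipenem susceptibility.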

[4] = tested on: Serratia marcescens expressing IMP-1 (CL5741); assay type: cell-based; conditions: IMP-1 (CL5741), with imipenem 1 μg/ml, 95% inhibition of bacterial growth
Outline: as §2

[5] = tested on: Klebsiella pneumoniae expressing VIM-1 (IHMA599644); assay type: cell-based; conditions: VIM-1 (IHMA599644), with imipenem 1 μg/ml, 95% inhibition of bacterial growth
Outline: as §2

[6] = tested on: P. aeruginosa expressing IMP-1, efflux+ (MB9798); assay type: cell-based, Pseudomonas aeruginosa; conditions: for P. aeruginosa expressing IMP-1, efflux+ (MB9798) MITC95: imipenem at 2 μg/mL, in the presence of a class A, C, D serine β-lactamase inhibitor closely related to relebactam; for Efflux ratio: ratio MITC95 PA_9798/MITC95 PA_9799
Text: (§3) The strain background is Pseudomonas aeruginosa PAO1.

[7] = target: VIM-1 (Pseudomonas aeruginosa (strain ATCC 15692 / DSM 22644 / CIP 104116 / JCM 14847 / LMG 12228 / 1C / PRS 101 / PAO1), UniProt A0A0F7KYQ8); test: biochemical; conditions: CCF2-FA substrate, 2 hours at 25° C
Outline: as §1

[8] = tested on: P. aeruginosa expressing IMP-1, efflux− (MB9799); test: Efflux: concentration of MBL inhibitor which restores susceptibility to imipenem; assay type: cell-based, Pseudomonas aeruginosa; conditions: imipenem at 2 μg/mL, in the presence of a class A, C, D serine β-lactamase inhibitor closely related to relebactam
Text: as §3

[9] = CCF2-FA substrate, 2 hours at 25° C, read-out: IMP-1 IC50

Chain of IMP-1 (P52699 whole entry, looked up, species assumed): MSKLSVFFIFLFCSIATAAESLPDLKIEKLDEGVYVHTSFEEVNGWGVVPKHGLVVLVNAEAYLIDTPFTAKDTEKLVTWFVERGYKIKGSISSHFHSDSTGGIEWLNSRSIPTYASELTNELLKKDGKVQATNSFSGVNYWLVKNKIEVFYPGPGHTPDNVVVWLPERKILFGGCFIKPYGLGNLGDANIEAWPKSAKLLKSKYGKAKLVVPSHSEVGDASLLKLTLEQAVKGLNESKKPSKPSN
Chain of NDM-1 (C7C422 whole entry, looked up, species assumed): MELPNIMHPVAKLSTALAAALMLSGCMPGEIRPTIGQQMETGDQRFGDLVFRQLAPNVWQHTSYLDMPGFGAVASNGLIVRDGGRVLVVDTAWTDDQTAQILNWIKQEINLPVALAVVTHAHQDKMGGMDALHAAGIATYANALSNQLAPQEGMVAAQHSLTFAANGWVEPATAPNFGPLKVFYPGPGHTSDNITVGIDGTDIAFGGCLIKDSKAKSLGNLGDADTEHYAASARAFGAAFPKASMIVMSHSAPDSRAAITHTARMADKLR

Row | Structure (SMILES) | IC50 [1, 9] [nM] | IC50 [2] [nM] | Escherichia coli MITC95 [3] [µM] | Serratia marcescens MITC95 [4] [µM] | Klebsiella pneumoniae MITC95 [5] [µM] | P. aeruginosa expressing IMP-1, efflux+ (MB9798) MITC95 [6] [µM] | Efflux ratio [6] | IC50 [7] [nM] | P. aeruginosa expressing IMP-1, efflux− (MB9799) MITC95 [8] [µM] | IC50 [1] [nM]
1 | NCCS(=O)(=O)c1ccc(-c2cccc3[nH]c(C(F)(F)CN)nc23)c(-c2nn[nH]n2)c1S(N)(=O)=O [Example 307, 3-(2-(2-amino-1,1-difluoroethyl)-1H-benzo[d]imidazol-4-yl)-6-((2-aminoethyl)sulfonyl)-2-(2H-tetrazol-5-yl) benzenesulfonamide] | 0.0868 | 0.0372 | 0.7813 | 0.7813 | 0.7813 | 0.3906 | 1.00 | 0.0306 | 0.3906 | –
2 | NCCS(=O)(=O)c1ccc(-c2cccc3[nH]c(C(F)(F)F)nc23)c(-c2nn[nH]n2)c1S(N)(=O)=O [Example 308, 6-((2-aminoethyl)sulfonyl)-2-(2H-tetrazol-5-yl)-3-(2-(trifluoromethyl)-1H-benzo[d]imidazol-4-yl)benzenesulfonamide] | 0.56 | 0.17 | 3.125 | 3.125 | 3.125 | 6.25 | 4.00 | 0.219 | 1.563 | –
3 | NS(=O)(=O)c1c(S(=O)(=O)C2CNC2)ccc(-c2cccc3sc(O)nc23)c1-c1nn[nH]n1 [Example 309, 6-(azetidin-3-ylsulfonyl)-3-(2-hydroxybenzo[d]thiazol-4-yl)-2-(2H-tetrazol-5-yl)benzenesulfonamide] | 0.256 | 0.0885 | 0.7813 | 3.125 | 3.125 | 3.125 | 2.00 | 0.145 | 1.563 | –
4 | Nc1ncccc1-c1cc(-c2ccc(S(=O)(=O)C3CNC3)c(S(N)(=O)=O)c2-c2nnn[nH]2)ccn1 [Example 310, 3-(2′-Amino-[2,3′-bipyridin]-4-yl)-6-(azetidin-3-ylsulfonyl)-2-(1H-tetrazol-5-yl)benzenesulfonamide] | 2.3 | 1.04 | 1.563 | 1.563 | 3.125 | 25 | 15.99 | 0.319 | 1.563 | –
5 | Nc1cc(-c2cc(-c3ccc(S(=O)(=O)C4CNC4)c(S(N)(=O)=O)c3-c3nnn[nH]3)ccn2)ccn1 [Example 311, 3-(2′-amino-[2,4′-bipyridin]-4-yl)-6-(azetidin-3-ylsulfonyl)-2-(1H-tetrazol-5-yl)benzenesulfonamide] | 2.32 | 0.921 | 3.125 | 1.563 | 3.125 | 50 | 31.99 | 0.315 | 1.563 | –
6 | NC[C@@H](O)CS(=O)(=O)c1ccc(-c2cccc3[nH]c(N)nc23)c(-c2nn[nH]n2)c1S(N)(=O)=O [Example 312, 3-(2-amino-1H-benzo[d]imidazol-4-yl)-6-((R)-3-amino-2-hydroxypropylsulfonyl)-2-(2H-tetrazol-5-yl)benzenesulfonamide] | 0.43 | 0.12 | 0.3477 | 0.5573 | 0.8542 | 0.2786 | 0.50 | 0.389 | 0.5573 | –
7 | NCCS(=O)(=O)c1ccc(-c2cccc3sc(N)nc23)c(-c2nn[nH]n2)c1S(N)(=O)=O [Example 313, 3-(2-aminobenzo[d]thiazol-4-yl)-6-((2-aminoethyl)sulfonyl)-2-(2H-tetrazol-5-yl)benzenesulfonamide] | 0.257 | 0.155 | 1.618 | 1.228 | 2.009 | 0.6138 | 0.69 | 0.232 | 0.8929 | –
8 | Nc1nc2c(-c3ccc(S(=O)(=O)CCO)c(S(N)(=O)=O)c3-c3nn[nH]n3)cccc2s1 [Example 314, 3-(2-aminobenzo[d]thiazol-4-yl)-6-((2-hydroxyethyl)sulfonyl)-2-(2H-tetrazol-5-yl)benzenesulfonamide] | 0.445 | 0.379 | 12.5 | 6.25 | 12.5 | 12.5 | 2.00 | 0.727 | 6.25 | –
9 | Nc1nc2c(-c3ccc(S(=O)(=O)C4CCNCC4)c(S(N)(=O)=O)c3-c3nn[nH]n3)cccc2s1 [Example 315, 3-(2-aminobenzo[d]thiazol-4-yl)-6-(piperidin-4-ylsulfonyl)-2-(2H-tetrazol-5-yl)benzenesulfonamide] | – | 0.113 | 1.563 | 1.563 | 3.125 | 0.7813 | 1.00 | 0.251 | 0.7813 | 0.249
10 | Nc1nc2c(-c3ccc(S(=O)(=O)C4CCNCC4)c(S(N)(=O)=O)c3-c3nn[nH]n3)cccc2[s+]1[O-] (stereo not drawn) [Example 316, 3-(2-amino-1-oxidobenzo[d]thiazol-4-yl)-6-(piperidin-4-ylsulfonyl)-2-(2H-tetrazol-5-yl)benzenesulfonamide] | 0.835 | 0.284 | 6.25 | 12.5 | 12.5 | 6.25 | 1.00 | 0.779 | 6.25 | –
11 | Nc1nc2c(-c3ccc(S(=O)(=O)C4CNC4)c(S(N)(=O)=O)c3-c3nn[nH]n3)cccc2s1 [Example 317, 3-(2-aminobenzo[d]thiazol-4-yl)-6-(azetidin-3-ylsulfonyl)-2-(2H-tetrazol-5-yl)benzenesulfonamide] | 0.227 | 0.0312 | 1.172 | 0.7813 | 1.563 | 0.7813 | 1.00 | 0.189 | 0.7813 | –
12 | NS(=O)(=O)c1c(S(=O)(=O)C2CCNCC2)ccc(-c2cccc3c2CNC3=O)c1-c1nn[nH]n1 [Example 318, 3-(1-oxoisoindolin-4-yl)-6-(piperidin-4-ylsulfonyl)-2-(2H-tetrazol-5-yl)benzenesulfonamide] | 27.1 | 1.95 | 12.5 | 25 | 12.5 | 25 | 4.00 | 0.517 | 6.25 | –
13 | Nc1nc2c(-c3ccc(S(=O)(=O)CCO)c(S(N)(=O)=O)c3-c3nn[nH]n3)cccc2c[n+]1[O-] [Example 319, 2-amino-8-(4-((2-hydroxyethyl)sulfonyl)-3-sulfamoyl-2-(2H-tetrazol-5-yl)phenyl)quinazoline 3-oxide] | 1.92 | 0.194 | 100 | 25 | 50 | 25 | 2.00 | 0.407 | 12.5 | –
14 | NS(=O)(=O)c1c(S(=O)(=O)CCO)ccc(-c2cccc3c2ccc[n+]3[O-])c1-c1nn[nH]n1 [Example 320, 5-(4-((2-hydroxyethyl)sulfonyl)-3-sulfamoyl-2-(2H-tetrazol-5-yl)phenyl)quinoline 1-oxide] | 1.06 | 0.939 | 50 | 25 | 12.5 | 25 | 4.00 | 0.208 | 6.25 | –
